Experimental data published in article PMC5602355, “Endogenous Isoquinoline Alkaloids Agonists of Acid-Sensing Ion Channel Type 3” (Frontiers in Molecular Neuroscience, 2017).

Experiments:
[1] = Solubility in physiological solutions for electrophysiology; assay type: physicochemical; conditions: in words; maximal concentration used 1 mM
Description: (§1) Consequently, a maximal concentration of 1 mM was used in experimentations. The maximal effect on hASIC3 reached about 60% of Imax.

[2] = target: T1, human ASIC3 (hASIC3) (Homo sapiens, UniProt Q9UHC3); test: Activation of hASIC3 channels expressed in Xenopus laevis oocytes, whole-cell two electrode voltage clamp; assay type: cell-based; conditions: for Maximal activating effect reached, % of Imax: Imax predicted by logistic fit
T1 construct: expressed in transfected cells; host or cells: Xenopus laevis oocytes (injected)
T1 sequence (Q9UHC3 1-531): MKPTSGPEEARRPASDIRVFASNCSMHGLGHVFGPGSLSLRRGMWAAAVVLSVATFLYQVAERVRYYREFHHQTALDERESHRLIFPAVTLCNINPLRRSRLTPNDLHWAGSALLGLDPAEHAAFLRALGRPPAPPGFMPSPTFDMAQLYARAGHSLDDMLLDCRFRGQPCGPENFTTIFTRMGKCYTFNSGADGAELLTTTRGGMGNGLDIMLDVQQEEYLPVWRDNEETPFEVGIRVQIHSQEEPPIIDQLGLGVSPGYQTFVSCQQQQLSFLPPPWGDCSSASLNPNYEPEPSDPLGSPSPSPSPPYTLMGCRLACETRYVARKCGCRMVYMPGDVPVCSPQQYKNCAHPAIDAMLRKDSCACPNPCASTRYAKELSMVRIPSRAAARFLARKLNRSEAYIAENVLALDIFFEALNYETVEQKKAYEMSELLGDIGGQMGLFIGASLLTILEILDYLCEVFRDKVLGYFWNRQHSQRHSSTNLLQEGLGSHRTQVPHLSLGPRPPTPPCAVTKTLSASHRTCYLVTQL
Text: (§2) The ability of EIAs to activate ASIC3 channels was studied in whole-cell configuration on oocytes of Xenopus laevis. THP and reticuline caused slowly activated sustained inward currents both in human (Figures 1A,B) and rat (Figures 1C,D) homomeric ASIC3 channels at resting pH 7.4 and above.
(§3) In the case of human ASIC3 channels (hASIC3), the activating effect was greater and even exceeded the response of the cell to pH drop of 7.8–5.5 in control experiments (Figure 1A). The maximal effect reached about 30% of Imax (a maximal amplitude predicted by the logistic equation fitting of dose-dependence of EIA-induced current). […] THP shown the same potency on the rASIC3 channel (rASIC3; Figure 1C). The activating effect under the same conditions reached about 30% of Imax.
as §1
(§4) Oocytes expressed hASIC3 and rASIC3 homomeric channels were prepared as described (Dubinnyi et al., [2012]). After injection, the oocytes were kept for 2–3 days at 19°C and then up to 7 days at 15°C in an ND-96 medium containing (in mM): 96 NaCl, 2 KCl, 1.8 CaCl2, 1 MgCl2 and 10 HEPES titrated to pH 7.4 with NaOH supplemented with gentamycin (50 μg/ml). Two electrode voltage clamp recordings were made using a GeneClamp500 amplifier (Axon Instruments), and data were filtered at 20 Hz and digitized at 100 Hz by an AD converter L780 (L-Card, Moscow, Russia) using homemade software. A computer-controlled valve system for a fast solution switch was used. Microelectrodes were filled with 3 M KCl solutions. All solutions of the testing compounds were supplemented with 0.1% BSA. To induce currents, we employed ND-96-modified solutions in which 10 mM of HEPES was substituted for 5 mM MES pH 5.5. A set of external ND-96 solutions with pH 6.8–7.0 (buffered with 10 mM of MOPS), pH 7.1–8.0 (buffered with 10 mM of HEPES) was prepared.
The analysis of electrophysiological data was performed using the program OriginPro 8.6. The curve-fitting analysis was carried out with the following four-parameter logistic equation: F(x) = A/(1 + (x/x0)n), where x is the concentration of the ligand, F(x) is the response value at a given ligand concentration, A is the response value at maximal activation (% of control), x0 is the EC50 value and n is the Hill coefficient (slope factor). All data are presented as the mean ± SE.

[3] = target: T1, human ASIC3 (hASIC3); test: Recovery of the transient current of hASIC3 from steady-state desensitization, oocytes; assay type: cell-based; conditions: hASIC3, conditioning pH 7.3, pH 5.5 stimulus, n = 4-5
Description: EIAs cause both the channel activation and transient component of hASIC3 current restoration from a desensitization at pH 7.3 (Figures 2A,D). For THP, the restoration effect was more pronounced. This effect was dose-dependent and reached a maximal possible value at the highest applied concentration of THP (10 mM). […] For this reason, the maximal amplitude of the transient current recovered by THP from desensitization (Imax) was predicted by the fitting of the dose dependence by a logistic equation for each experimental cell.
as §4, with “To induce currents, we employed ND-96-modified solutions in which 10 mM of HEPES was substituted for 5 mM MES pH 5.5. A set of external ND-96 solutions with pH 6.8–7.0 (buffered with 10 mM of MOPS), pH 7.1–8.0 (buffered with 10 mM of HEPES) was prepared.” left out

[4] = target: T2, rat ASIC3 (rASIC3) (Rattus norvegicus, UniProt O35240); test: Activation of rASIC3 channels expressed in Xenopus laevis oocytes, whole-cell two electrode voltage clamp; assay type: cell-based
T2 construct: expressed in transfected cells; host or cells: Xenopus laevis oocytes (injected)
T2 sequence (O35240 1-533): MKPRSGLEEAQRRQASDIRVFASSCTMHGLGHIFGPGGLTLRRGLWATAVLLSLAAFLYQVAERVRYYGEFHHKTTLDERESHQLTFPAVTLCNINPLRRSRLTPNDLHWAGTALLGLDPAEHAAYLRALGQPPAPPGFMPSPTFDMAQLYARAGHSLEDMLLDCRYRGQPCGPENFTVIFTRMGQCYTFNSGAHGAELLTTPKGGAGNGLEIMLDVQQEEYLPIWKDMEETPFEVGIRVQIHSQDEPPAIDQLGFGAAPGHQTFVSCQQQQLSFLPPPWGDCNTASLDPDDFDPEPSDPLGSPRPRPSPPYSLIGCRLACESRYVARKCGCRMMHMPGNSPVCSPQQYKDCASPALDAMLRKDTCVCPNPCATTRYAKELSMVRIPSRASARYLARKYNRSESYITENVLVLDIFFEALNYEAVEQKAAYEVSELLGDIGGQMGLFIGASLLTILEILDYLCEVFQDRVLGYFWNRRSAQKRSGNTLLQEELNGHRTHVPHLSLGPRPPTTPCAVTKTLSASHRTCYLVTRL
Text: as §2, §3, §4
(§5) The analysis of electrophysiological data was performed using the program OriginPro 8.6. […]

[5] = target: T2, rat ASIC3 (rASIC3); test: Recovery of the transient current of rASIC3 from steady-state desensitization, oocytes; assay type: cell-based; conditions: rASIC3, conditioning pH 6.8, pH 5.5 stimulus, n = 4-5
Description: as §4, §5

[6] = hASIC3, holding pH 7.8, logistic fit, n = 5

| Structure (SMILES) | Solubility in physiological solutions for electrophysiology [1] | Hill coefficient (nH) of channel activation [2, 6] | EC50 ([2]; hASIC3, holding pH 7.8, logistic fit, n = 5, read-out: EC50 of channel activation (EIA-induced sustained current)) [mM] | Maximal activating effect reached, % of Imax ([2]; hASIC3, maximal concentration 1 mM) | EC50 [3] [mM] | EC50 [2] [mM] | Maximal activating effect reached, % of Imax ([2]; hASIC3, pH 7.8, highest accessible concentration 10 mM) | Hill coefficient (nH) of channel activation ([4]; rASIC3, holding pH 7.8, logistic fit, n = 5) | EC50 ([4]; rASIC3, holding pH 7.8, logistic fit, n = 5, read-out: EC50 of channel activation (EIA-induced sustained current)) [mM] | Maximal activating effect reached, % of Imax ([4]; rASIC3, pH 7.8, up to 10 mM, Imax predicted by logistic fit) | EC50 [5] [mM] |
| --- | --- | --- | --- | --- | --- | --- | --- | --- | --- | --- | --- |
| COc1ccc(CC2c3cc(O)c(OC)cc3CCN2C)cc1O (stereo not drawn) [Reticuline, reticuline] | does not have a high solubility | 0.85 ± 0.05 | 0.56 ± 0.04 | about 60 % of Imax | – | – | – | – | – | – | – |
| Oc1ccc(CC2NCCc3cc(O)c(O)cc32)cc1O (stereo not drawn) [THP, tetrahydropapaveroline] | – | 0.99 ± 0.05 | – | – | 2.3 ± 0.04 | > 10 | about 30 % of Imax | 0.95 ± 0.04 | > 10 | about 30 % of Imax | 4.6 ± 0.1 |
